# Measurements from patent US20080193563A1, “HARNESSING WNT SIGNALING TO RESTRICT HIV REPLICATION” (priority 2006, published 2008).
# Legend:
# [1] = system: IFNγ, GM-CSF and TNFγ receptors on U87MG; assay: Cytokine receptor expression on U87MG by flow cytometry; type: cell-based, human; settings: 24-hour treatment
# Description: U87MG (A) or HFA (B) were left untreated or treated with GM-CSF (50 ng/ml), IFNγ100 ng/ml) or TNFγ100 ng/ml). […] Percent expression of GM-CSF receptor (R), IFNγR, and TNFγR was measured 24 hours post-stimulation by flow cytometry. Data is representative of three experiments. Error bars represent standard deviations of the mean.
# Prior to evaluating if GM-CSF, IFNγ, and TNFγ can augment HIV replication of astrocytes, a question was whether U87MG and HFA express the respective cytokine receptors. U87MG and HFA were treated with or without the respective cytokine for 24 hours and cytokine receptor expression was evaluated by flow cytometry. Approximately 35% of U87MG expressed the IFNγ receptor and a low level of GM-CSF and TNFγ receptors (<8%; FIG. 3A). […] Untreated HFA expressed only low levels of IFNγ receptor (6%) and this expression was abrogated with IFNγ treatment. GM-CSF and TNFγ receptors were not expressed on HFA.
# TCF-4 / Wnt signaling = assay: TOPflash luciferase reporter (Wnt signaling) in U87MG; type: cell-based, human; settings: IFNγ treated, 24 hrs post-transfection
# Description: FIG. 11 Impact of IFN-γ on Wnt signaling. U87MG cells were left untreated or treated with IFN-γ for 24 hrs and then transfected with either TOPflash (containing four native TCF/LEF binding sites) and Renilla constructs or GFP and Renilla constructs. Transfected cells were then cultured with or without their initial treatment (with or without IFN-γ). Luciferase relative light activity (relative light units) was measured 24 hrs later using a luminometer and normalized to Renilla activity. Data are based on at least three experiments and are presented as the increase (n-fold) in luciferase relative light units over Renilla ±standard deviation.
# Wnt signaling in astrocytes and its inhibition by IFNγ was investigated: Although inhibiting TCF-4 with a dominant negative mutant stresses the importance of active TCF-4 in restricting HIV replication, it is not informative regarding the mechanism by which IFNγ overcomes astrocyte restriction to productive HIV replication. […] Luc activity was measured 24 hrs post-transfection TCF-4 reporter construct is an indicator of basal and inducible levels of Wnt signaling.
# Active Wnt signaling in astrocytes and its inhibition by IFN-γ. […] Basal TCF-4 activity was detected in astrocytes, indicating active Wnt signaling in human astrocytes (FIG. 11). […]
substance,measurement,setting,value
"IFNγ: cytokine secreted by lymphocytes, activated microglia and astrocytes; used to prime astrocytes",Down-regulation of IFNγ receptor expression,[1],2 fold
same,IFNγ receptor expression after treatment,[1]; untreated approximately 35%,approximately 15%
same,Reduction of basal Wnt signaling (TOPflash luciferase),TCF-4 / Wnt signaling,approximately 50%
